Results: PMC8569681, “New Pyrimidine and Pyridine Derivatives as Multitarget Cholinesterase Inhibitors: Design, Synthesis, and In Vitro and In Cellulo Evaluation” (ACS Chemical Neuroscience, 2021)
Where two headings read alike, the source gives them in different places.

What was measured:
[1] = biological target: T1, Electrophorus electricus AChE (EeAChE) (Electrophorus electricus, UniProt O42275); experiment: Percent inhibition of EeAChE, Ellman's spectrophotometric method; assay type: biochemical; settings: for inhibition at 90 µM: read-out: % inhibition vs EeAChE ± SD (90 uM), 90 uM; for inhibition at 900 µM: read-out: % inhibition vs EeAChE ± SD (900 uM), 900 uM; for inhibition at 0.09 µM: read-out: % inhibition vs EeAChE ± SD, [I] 90 nM; for inhibition at 0.9 µM: read-out: % inhibition vs EeAChE ± SD, [I] 900 nM
T1 construct: purchased Sigma-Aldrich (Milan, Italy)
T1 sequence (O42275 24-633): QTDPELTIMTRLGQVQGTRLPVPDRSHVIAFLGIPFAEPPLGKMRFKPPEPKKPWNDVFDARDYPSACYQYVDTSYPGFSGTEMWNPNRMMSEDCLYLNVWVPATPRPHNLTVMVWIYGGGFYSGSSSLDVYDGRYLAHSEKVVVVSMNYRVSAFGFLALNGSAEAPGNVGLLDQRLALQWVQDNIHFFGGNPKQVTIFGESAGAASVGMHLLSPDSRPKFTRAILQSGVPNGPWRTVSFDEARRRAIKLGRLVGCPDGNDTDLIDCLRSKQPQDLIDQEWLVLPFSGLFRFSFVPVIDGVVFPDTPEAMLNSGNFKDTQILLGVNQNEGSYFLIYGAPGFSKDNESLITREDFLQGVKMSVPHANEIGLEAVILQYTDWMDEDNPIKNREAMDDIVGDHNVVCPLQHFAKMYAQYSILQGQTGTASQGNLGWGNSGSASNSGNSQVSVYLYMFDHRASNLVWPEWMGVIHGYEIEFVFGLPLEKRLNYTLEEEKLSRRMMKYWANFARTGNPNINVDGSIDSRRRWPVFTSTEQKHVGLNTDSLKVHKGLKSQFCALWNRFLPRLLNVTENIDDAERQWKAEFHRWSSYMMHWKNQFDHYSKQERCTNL
Method: All other chemical and biological reagents and solvents used were of the highest analytical, commercially available grade. The water, utilized for the preparation of the phosphate buffer and of the compound solutions, was distilled and filtered on nylon membrane filters with a 0.2 μm pore size with the Millipore Filtration apparatus before each use. Micropipettes Labmate (BRAND Dig. 10–100 μL; Dig. 100–1000 μL; Dig. 0.1–2 μL) and Transferpette (HIGH TECH LAB LM200: 20–200 μL; LM5000: 1000–5000 μL) were used to collect the samples. The assays were carried out by a double beam UV–vis Lambda 40 Perkin Elmer spectrophotometer using optical polystyrene cuvettes (10 × 10 × 45 mm, 340–800 nm optical transparency); each measure was repeated at least in triplicate. […] The spectrophotometric method of Ellman[25] with minor modifications was used to evaluate the inhibition of ChEs. […] EeAChE and eqBChE were periodically tested to evaluate the effective enzymatic activity.
For all the synthesized compounds, the percentages of inhibition toward AChE of Electrophorus electricus (EeAChE) and equine BChE (eqBChE) were evaluated.
Three milliliters of a solution in 0.1 M phosphate buffer (pH = 7.4) containing DTNB (0.25 mM) and EeAChE (0.083 UmL^–1) or eqBChE (0.083 UmL^–1) was placed in a polystyrene cuvette of 1.0 cm path length; 1 μL of a […] With this solution, the blank was made. […] Each experiment was repeated at least in triplicate.

[2] = biological target: T2, tau protein (Homo sapiens, UniProt P10636); experiment: Inhibition of tau aggregation in intact E. coli cells, thioflavin-S; assay type: cell-based, Escherichia coli; settings: [I] = 100 μM
T2 construct: expressed in transfected cells; host or cells: E. coli BL21 (DE3) with pTARA and pRKT42
T2 sequence (P10636 1-441 isoform P10636-8): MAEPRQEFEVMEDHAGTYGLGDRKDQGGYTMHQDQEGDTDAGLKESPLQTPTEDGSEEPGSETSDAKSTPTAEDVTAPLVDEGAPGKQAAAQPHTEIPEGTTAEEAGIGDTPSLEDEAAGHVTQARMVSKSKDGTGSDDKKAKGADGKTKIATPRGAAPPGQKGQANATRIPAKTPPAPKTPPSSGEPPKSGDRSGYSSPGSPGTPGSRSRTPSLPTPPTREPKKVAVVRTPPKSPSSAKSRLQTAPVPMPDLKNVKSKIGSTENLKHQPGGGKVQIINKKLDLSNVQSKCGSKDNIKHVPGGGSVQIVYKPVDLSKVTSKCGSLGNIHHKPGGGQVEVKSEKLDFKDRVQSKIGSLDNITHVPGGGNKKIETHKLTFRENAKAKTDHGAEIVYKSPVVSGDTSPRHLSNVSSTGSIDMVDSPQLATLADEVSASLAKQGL
Method: (§1) The anti-aggregating effect of the tested compounds was monitored by a cell-based assay in intact Escherichia coli cells that overexpress either the Aβ42 peptide or tau protein, which upon overexpression form insoluble inclusion bodies that were stained with thioflavin-S, an amyloid specific dye.[36] The percentages of inhibition toward Aβ42 and tau aggregation were determined at an inhibitor concentration of 100 μM, and the obtained results are reported in Table 7.
E. coli BL21 (DE3) competent cells were transformed with pTARA containing the RNA-polymerase gene of T7 phage (T7RP) under the control of the promoter PBAD. E. coli BL21 (DE3) with pTARA competent cells were transformed with the pRKT42 vector encoding four repeats of the tau protein in two inserts. For overnight culture preparation, 10 mL of the M9 medium containing 0.5% of glucose, 50 μg·mL^–1 of ampicillin, and 12.5 μg·mL^–1 of chloramphenicol was inoculated with a colony of BL21 (DE3) bearing the plasmids to be expressed at 37 °C. For expression of the tau protein, the required volume of overnight culture to obtain 1:500 dilution was added to the fresh M9 minimal medium containing 0.5% of glucose, 50 μg·mL^–1 of ampicillin, 12.5 μg·mL^–1 of chloramphenicol, and 250 μM Th-S. The bacterial culture was grown at 37 °C and 250 rpm. When the cell density reached OD600 = 0.6, an amount of 980 μL of culture was transferred into Eppendorf tubes of 1.5 mL with 10 μL of each compound to be tested in DMSO and 10 μL of arabinose at 25%. The final concentration of the drug was fixed at 100 μM. The samples were grown overnight at 37 °C and 1400 rpm using a ThermoMixer (Eppendorf, Hamburg, Germany). As negative control (maximal presence of tau), the same amount of DMSO without the drug was added in the sample. In parallel, non-induced samples (in the absence of arabinose) were also prepared and used as positive controls (absence of tau). In addition, these samples were used to assess the potential intrinsic toxicity of the compounds and to confirm the correct bacterial growth.
(§2) Th-S (T1892) and other chemical reagents were purchased from Sigma (St. Louis, MO). The Th-S stock solution ([…]) was prepared in double-distilled water purified through a Milli-Q system (Millipore, USA). Th-S fluorescence and absorbance were tracked using a DTX 800 plate reader Multimode Detector equipped with a Multimode Analysis Software (Beckman-Coulter, USA). Filters of 430/35 and 485/20 nm were used for the excitation and emission wavelengths, respectively. Filters of 535/25 nm were also used for the absorbance determination. To normalize the Th-S fluorescence as a function of the bacterial concentration, OD600 was obtained using a Shimadzu UV-2401 PC UV–vis spectrophotometer (Shimadzu, Japan). Note that the fluorescence normalization was carried out considering as 100% the Th-S fluorescence of the bacterial cells expressing the peptide or protein in the absence of drug and 0% the Th-S fluorescence of the bacterial cells not expressing the peptide or protein. A minimum of five independent assays (with three replicates for assay) was performed for each tested compound. More assays were performed to obtain a SEM < 5% with a maximum of 10 independent assays.

[3] = biological target: T3, Aβ42 peptide (Homo sapiens, UniProt P05067); experiment: Inhibition of Aβ42 aggregation in intact E. coli cells, thioflavin-S; assay type: cell-based, Escherichia coli; settings: [I] = 100 μM
T3 construct: expressed in transfected cells; host or cells: E. coli BL21 (DE3), pET28a
T3 sequence (P05067 672-713 limits assumed): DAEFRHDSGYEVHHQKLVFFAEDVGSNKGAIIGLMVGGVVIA
Method: as §1
E. coli competent cells BL21 (DE3) were transformed with the pET28a vector (Novagen, Inc., Madison, WI, USA) carrying the DNA sequence of Aβ42. Because of the addition of the initiation codon ATG in front of both genes, the overexpressed peptide contains an additional methionine residue at its N terminus. For overnight culture preparation, an amount of 10 mL of the M9 minimal medium containing 50 μg·mL^–1 of kanamycin was inoculated with a colony of BL21 (DE3) bearing the plasmid to be expressed at 37 °C. For expression of the Aβ42 peptide, the required volume of overnight culture to obtain 1:500 dilution was added into the fresh M9 minimal medium containing 50 μg·mL^–1 of kanamycin and 250 μM Th-S. The bacterial culture was grown at 37 °C and 250 rpm. When the cell density reached OD600 = 0.6, an amount of 980 μL of culture was transferred into Eppendorf tubes of 1.5 mL with 10 μL of each compound to be tested in DMSO and 10 μL of isopropyl 1-thio-β-D-galactopyranoside (IPTG) at 100 mM. The final concentration of the drug was fixed at 100 μM. The samples were grown overnight at 37 °C and 1400 rpm using a ThermoMixer (Eppendorf, Hamburg, Germany). As negative control (maximal amyloid presence), the same amount of DMSO without the drug was added in the sample. In parallel, non-induced samples (in the absence of IPTG) were also prepared and used as positive controls (non-amyloid presence). In addition, these samples were used to assess the potential intrinsic toxicity of the compounds and to confirm the correct bacterial growth.
as §2

[4] = read-out: % inhibition vs EeAChE ± SD (9 uM), 9 uM, supplement csv
[5] = 0.0833 U/mL enzyme, 100 μM acetylthiocholine
[6] = read-out: % inhibition vs EeAChE ± SD, [I] 9 μM, 0.0833 U/mL enzyme, 100 μM acetylthiocholine

Row | SMILES | inhibition at 9 µM [1, 4] [%] | inhibition at 90 µM ([1]; supplement csv) [%] | inhibition at 900 µM ([1]; supplement csv) [%] | inhibition at 0.09 µM [1, 5] [%] | inhibition at 0.9 µM [1, 5] [%] | inhibition at 9 µM [1, 6] [%] | inhibition at 100 µM [2] [%] | inhibition at 100 µM [3] [%]
1 | c1ccc(CNCCCCCNc2ncccn2)cc1 [Compound 9, N^1-Benzyl-N^5-(pyrimidin-2-yl)pentane-1,5-diamine] | 90.2 ± 0.7 | 14.1 ± 1.4 | 57.1 ± 0.9 | 14.1 ± 1.4 | 40 to 60 | ~90 | 2.6 | 5.8
2 | c1ccc(CNCCCCCCNc2ncccn2)cc1 [Compound 13, N^1-Benzyl-N^6-(pyrimidin-2-yl)hexane-1,6-diamine] | 92.9 ± 0.4 | 19.2 ± 1.4 | 60.3 ± 1.5 | 19.2 ± 1.4 |  | ~90 | 12.6 | 21
3 | COc1cc(CNCCCCCCNc2ncccn2)ccc1O [Compound 18, 2-Methoxy-4-(((6-(pyrimidin-2-ylamino)hexyl)amino)methyl)phenol] | 59.5 ± 3.6 |  | 14.7 ± 0.5 |  | 14.7 ± 0.5 | 60 to 70 | 1 | 1.7
4 | Oc1cccc(CNCCCCCCNc2ncccn2)c1 [Compound 19, 3-(((6-(Pyrimidin-2-ylamino)hexyl)amino)methyl)phenol] | 84.4 ± 0.3 |  | 39 ± 1.9 |  | 40 to 60 | ~90 | 9.9 | 16.7
5 | Oc1cccc(CNCCCCCCNc2ncccn2)c1O [Compound 20, 3-(((6-(Pyrimidin-2-ylamino)hexyl)amino)methyl)benzene-1,2-diol] | 90.5 ± 0.5 | 12.8 ± 1.9 | 53.6 ± 3.1 | 12.8 ± 1.9 | 40 to 60 | ~90 | 4.6 | 7.2
6 | c1cnc(NCCCCCCNCc2c[nH]c3ccccc23)nc1 [Compound 22, N^1-((1H-Indol-3-yl)methyl)-N^6-(pyrimidin-2-yl)hexane-1,6-diamine] | 69.2 ± 1.4 |  | 16.4 ± 1.9 |  | 16.4 ± 1.9 | 60 to 70 | 6.8 | 9.7
7 | c1ccc(CNCCCCCNc2ccccn2)cc1 [Compound 23, N^1-Benzyl-N^5-(pyridin-2-yl)pentane-1,5-diamine] | 53.5 ± 1.4 | 56.5 ± 3 | 10.3 ± 0.8 |  | 10.3 ± 0.8 | 53.5 ± 1.4 | 7 | 10.4
8 | c1ccc(CNCCCCCCNc2ccccn2)cc1 [Compound 25, N^1-Benzyl-N^6-(pyridin-2-yl)hexane-1,6-diamine] | 73.3 ± 0.1 | 71.6 ± 2.1 | 23.1 ± 5.7 |  | 23.1 ± 5.7 | 73 | 6.7 | 16.8
9 | Brc1ccc(CNCCCCCCNc2ccccn2)cc1 [Compound 26, N^1-(4-Bromobenzyl)-N^6-(pyridin-2-yl)hexane-1,6-diamine] | 23.5 ± 2.2 | 76.8 ± 0.5 |  |  |  | 24 to 30 | 7.3 | 7.3
10 | COc1ccccc1CNCCCCCCNc1ccccn1 [Compound 28, N^1-(2-Methoxybenzyl)-N^6-(pyridin-2-yl)hexane-1,6-diamine] | 58.6 ± 1.1 | 74.3 ± 1.4 | 9 ± 1.6 |  | 9 ± 1.6 | ~60 | 17 | 22.3
11 | COc1cc(CNCCCCCCNc2ccccn2)ccc1O [Compound 30, 2-Methoxy-4-(((6-(pyridin-2-ylamino)hexyl)amino)methyl)phenol] | 61.8 ± 1.9 | 90.9 ± 0.6 | 17.3 ± 0.6 |  | 17.3 ± 0.6 | ~60 | 12.8 | 13.6
